Assay results as given in US10537571B2, “Pyrimidine FGFR4 inhibitors” (priority 2013, dated 2020).
Read-outs that look alike come from different tables or passages of the source.

Tested on: HEP3B tumor xenografts
Format: in vivo
Conditions: for comparative tumor growth efficacy: Hep3B

| SMILES | comparative tumor growth efficacy (25, 37.5 or 50 mg/kg i.p. twice daily) | tolerability (health of animals) (30 mg/kg orally twice daily) | tolerability (health of animals) (60 mg/kg orally twice daily, dosing terminated on Day 11) | comparative tumor growth efficacy (60 mg/kg orally twice daily) |
| --- | --- | --- | --- | --- |
| C=CC(=O)Nc1cc(N2CCN(CC)CC2)ccc1Nc1cc(N(C)C(=O)Nc2c(Cl)c(OC)cc(OC)c2Cl)ncn1 [Compound 108, N-(2-(6-(3-(2,6-Dichloro-3,5-dimethoxyphenyl)-1-methylureido)pyrimidin-4-ylamino)-5-(4-ethylpiperazin-1-yl)-phenyl)acrylamide] | more efficacious than BGJ398 |  |  |  |
| CCN1CCN(c2ccc(Nc3cc(N(C)C(=O)Nc4c(Cl)c(OC)cc(OC)c4Cl)ncn3)cc2)CC1 [BGJ398] |  | did not exhibit poor health | poor health of animals | efficacy comparable to compound 108 |
